# Experimental data: PubChem BioAssay AID435021 (Vanderbilt High Throughput Screening Facility, 2010)
# Activity calls are given as the source filed them.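 The calls were made as follows: active = response to a near-maximal acetylcholine dose cut to 15% or less of untreated controls; inactive = the rest.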
# Biological target: Muscarinic acetylcholine receptor M1 (Homo sapiens) (UniProt P11229)
# Experiment: inhibition of ACh EC80 calcium response at hM1 – cell-based, CHO-K1 hM1, Fluo-4 calcium, SAR follow-up (AID 435021)
# Settings: at 30 µM, stronger effect = lower value
# Chain of Muscarinic acetylcholine receptor M1 (Homo sapiens) (P11229 whole entry, looked up): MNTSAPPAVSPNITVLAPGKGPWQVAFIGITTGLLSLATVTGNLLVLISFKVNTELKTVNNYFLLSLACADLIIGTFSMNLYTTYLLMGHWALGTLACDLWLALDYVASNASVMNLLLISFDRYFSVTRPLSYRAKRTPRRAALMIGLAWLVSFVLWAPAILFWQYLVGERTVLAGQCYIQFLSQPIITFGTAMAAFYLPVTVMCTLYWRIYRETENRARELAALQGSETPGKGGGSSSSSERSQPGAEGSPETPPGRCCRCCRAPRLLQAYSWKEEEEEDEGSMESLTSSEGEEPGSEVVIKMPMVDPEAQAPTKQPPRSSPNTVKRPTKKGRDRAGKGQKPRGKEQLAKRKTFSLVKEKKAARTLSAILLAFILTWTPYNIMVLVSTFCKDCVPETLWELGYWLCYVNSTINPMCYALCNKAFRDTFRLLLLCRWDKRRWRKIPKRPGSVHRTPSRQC
row,SMILES,remaining EC80 response
1,O=C(CCNS(=O)(=O)c1cccc2nsnc12)N1CCN(c2nccs2)CC1,5.68%
2,O=C(CCNS(=O)(=O)c1cccc2nsnc12)N1CCN(c2nc3ccccc3o2)CC1,13.3%
3,COc1cccnc1N1CCN(C(=O)C(F)CNS(=O)(=O)c2cccc3nonc23)CC1 (stereo unspecified),29.7% (inactive)
4,O=C(CCNS(=O)(=O)c1cccc2nsnc12)N1CCN(c2cc(C(F)(F)F)ccn2)CC1,35.4% (inactive)
5,Cc1ccnc(N2CCN(C(=O)CCNS(=O)(=O)c3cccc4nsnc34)CC2)c1,45.8% (inactive)
6,O=C(CCNS(=O)(=O)c1cccc2nsnc12)N1CCN(c2nc3ccccc3s2)CC1,6.19%
7,COc1cccnc1N1CCN(C(=O)C(F)CNS(=O)(=O)c2cccc3nsnc23)CC1 (stereo unspecified),19.4% (inactive)
8,COc1cccnc1N1CCN(C(=O)CCNS(=O)(=O)c2cccc(-c3noc(C)n3)c2)CC1,97.5% (inactive)
9,O=C(CCNS(=O)(=O)c1cccc2nsnc12)N1CCN(c2ccccc2F)CC1,63.5% (inactive)
10,O=C(CCNS(=O)(=O)c1cccc2nsnc12)N1CCN(c2ccccn2)CC1,16.5% (inactive)
11,O=C(CCNS(=O)(=O)c1cccc2nsnc12)N1CCN(c2cccc(F)n2)CC1,3.23%
12,COc1cccnc1N1CCN(C(=O)CCNS(=O)(=O)c2ccccc2C#N)CC1,91.8% (inactive)
13,O=C(CCNS(=O)(=O)c1cccc2nsnc12)N1CCN(c2cc(F)ccn2)CC1,6.52%
14,O=C(CCNS(=O)(=O)c1cccc2nsnc12)N1CCN(c2ncc(Cl)cn2)CC1,7.16%
15,COc1cccc(N2CCN(C(=O)CCNS(=O)(=O)c3cccc4nsnc34)CC2)n1,14.4%
16,Cc1cnccc1N1CCN(C(=O)CCNS(=O)(=O)c2cccc3nsnc23)CC1,1.43%
17,O=C(C(F)CNS(=O)(=O)c1cccc2nsnc12)N1CCN(c2ccncc2)CC1 (stereo unspecified),13.6%
18,O=C(CCNS(=O)(=O)c1cccc2nsnc12)N1CCN(c2cc(Cl)ccn2)CC1,10.1%
19,COc1cccnc1N1CCN(C(=O)CCNS(=O)(=O)c2ccc3nsnc3c2)CC1,77.1% (inactive)
20,COc1cccnc1N1CCN(C(=O)CCNS(=O)(=O)c2cccc(C#N)c2)CC1,97% (inactive)
21,O=C(CCNS(=O)(=O)c1cccc2nsnc12)N1CCN(c2ccc(Br)cn2)CC1,-0.332%

row,SMILES,remaining EC80 response
1,O=C(CCNS(=O)(=O)c1cccc2nsnc12)N1CCN(c2ncccn2)CC1,62.7% (inactive)
2,O=C(CCNS(=O)(=O)c1cccc2nsnc12)N1CCN(c2cccc(Cl)n2)CC1,5.92%
3,O=C(CCNS(=O)(=O)c1cccc2nonc12)N1CCN(c2ccncc2)CC1,3.02%
4,COc1cccnc1N1CCN(C(=O)CCNS(=O)(=O)c2ccccc2[N+](=O)[O-])CC1,90% (inactive)
5,Cc1cccc(N2CCN(C(=O)CCNS(=O)(=O)c3cccc4nsnc34)CC2)n1,35.7% (inactive)
6,COc1cccnc1N1CCN(C(=O)CCNS(=O)(=O)c2cn(C)c(C)n2)CC1,98.5% (inactive)
7,O=C(CCNS(=O)(=O)c1cccc2nsnc12)N1CCN(c2ccncc2)CC1,1.97%
8,O=C(CCNS(=O)(=O)c1cccc2nsnc12)N1CCN(c2cccnc2)CC1,13.6%
9,O=C([C@H](F)CNS(=O)(=O)c1cccc2nonc12)N1CCN(c2ccncc2)CC1,8.19%
10,N#Cc1ccccc1N1CCN(C(=O)CCNS(=O)(=O)c2cccc3nsnc23)CC1,43.9% (inactive)
11,Cc1cc(Cl)nc(N2CCN(C(=O)CCNS(=O)(=O)c3cccc4nsnc34)CC2)c1C#N,3.37%
12,O=C(CCNS(=O)(=O)c1cccc2nsnc12)N1CCN(c2ccnc(Cl)c2)CC1,8.91%
13,O=C(CCNS(=O)(=O)c1cccc2nsnc12)N1CCN(c2nc(Cl)ns2)CC1,31.6% (inactive)
14,COc1cccnc1N1CCN(C(=O)CCNS(=O)(=O)c2ccc([N+](=O)[O-])cc2)CC1,92.7% (inactive)
15,O=C(CCNS(=O)(=O)c1cccc2nsnc12)N1CCN(c2ncccc2C(F)(F)F)CC1,64.7% (inactive)
16,O=C(C(F)CNS(=O)(=O)c1cccc2nonc12)N1CCN(c2ccncc2)CC1 (stereo unspecified),2.42%
17,O=C(CCNS(=O)(=O)c1cccc2nonc12)N1CCN(c2ccc(Br)cn2)CC1,0.916%
18,COc1ccccc1N1CCN(C(=O)CCNS(=O)(=O)c2cccc3nsnc23)CC1,102% (inactive)
19,CN(CCC(=O)N1CCN(c2ccncc2)CC1)S(=O)(=O)c1cccc2nsnc12,35.8% (inactive)
20,O=C([C@@H](F)CNS(=O)(=O)c1cccc2nonc12)N1CCN(c2ccncc2)CC1,56.6% (inactive)
